Legend:
tear production = experiment: THP-induced dry eye in dogs: tear production; format: in vivo, Beagles; conditions: oral, 2 mpk alone, 4 hours post administration
dizziness = conditions: humans; 3 mg THP immediate release at 0, 2, 4 hours versus 9 mg at once
Method: Experimental Design: All of the data collected in this example were run in a double-blind, randomized, placebo controlled setting of normal healthy adults. […] Dizziness was measured by the visual analog scale (VAS), a common clinical measure of dizziness.

human M4 receptor = target: T1, human M4 receptor (Homo sapiens, UniProt P08173); experiment: Calcium flux assay (FLIPR), CHO cells transiently transfected with human M4; format: cell-based; conditions: agonist mode
T1 construct: expressed in transfected cells; host or cells: CHO (transient transfection)
Method: All cells used in the following experiments were clonal populations of Chinese Hamster Ovary (CHO) cells stably expressing the corresponding human muscarinic receptor, except for the M4 cell line, which was a population of CHO cells transiently transfected with the human M4 receptor. […] The procedure was as follows: • 1. Cells were thawed and cultured in cell culture medium (DMEM/F12 containing 10% FBS, 1× penicillin-streptomycin and 600 μg/ml hygromycin B) at 37° C. in 5% (v/v) CO2. • 2. One day before the assays, cells were detached using TrypLE™ and counted using a cell-counter. […] 12,000 cells/well were seeded in 30 μl/well culture medium in a 384-well cell plate and incubated overnight at 37C, 5% (v/v) CO2. • 4. On the assay day, 2× dye solution was prepared following the manual of the FLIPR® Calcium 6 Assay Kit: • i. The dye was diluted with assay buffer (20 mM HEPES in 1× HBSS, PH 7.4); • ii. Probenecid was added to a final concentration of 5 mM; • iii. Cells were vortexed vigorously for 1-2 minutes. • 5. Medium was removed from the cell plate by flicking the cell plate on paper towels. • 6. 10 μl of assay buffer and 10 μl of 2× dye solution was added to each well of the cell plate. • 7. […] Plates were read for 160 sec with 1 sec intervals to obtain the data in agonist mode, then kept at 25° C. in the dark for 30 min. • 11.

[1] = system: Cerep87 Safety Panel receptors; experiment: Cerep87 Safety Panel (Eurofins), whole panel statements; format: binding; conditions: all receptors of the Cerep87 panel
[2] = target: human muscarinic receptor M1 (Homo sapiens, UniProt P11229); experiment: cell-based
Method: (§1) All cells used in the following experiments were clonal populations of Chinese Hamster Ovary (CHO) cells stably expressing the corresponding human muscarinic receptor, except for the M4 cell line, which was a population of CHO cells transiently transfected with the human M4 receptor. […] The procedure was as follows: • 1. Cells were thawed and cultured in cell culture medium (DMEM/F12 containing 10% FBS, 1× penicillin-streptomycin and 600 μg/ml hygromycin B) at 37° C. in 5% (v/v) CO2. • 2. One day before the assays, cells were detached using TrypLE™ and counted using a cell-counter. […] 12,000 cells/well were seeded in 30 μl/well culture medium in a 384-well cell plate and incubated overnight at 37C, 5% (v/v) CO2. • 4. On the assay day, 2× dye solution was prepared following the manual of the FLIPR® Calcium 6 Assay Kit: • i. The dye was diluted with assay buffer (20 mM HEPES in 1× HBSS, PH 7.4); • ii. Probenecid was added to a final concentration of 5 mM; • iii. […] were vortexed vigorously for 1-2 minutes. • 5. Medium was removed from the cell plate by flicking the cell plate on paper towels. • 6. 10 μl of assay buffer and 10 μl of 2× dye solution was added to each well of the cell plate. • 7. The cell plate was shaken on a plate shaker at 600 rpm for 2 minutes and incubated at 37° C. for 2 hours followed by an additional 15-minute incubation at 25° C. • 8. The test compounds were next prepared in assay buffer: • a. All compounds were diluted to the required concentration with DMSO and added to a 384-well compound plate; • b. All compounds were serially diluted; • 1. Starting with 10 mM concentration of each test compound, all samples were serially diluted in 3-fold dilutions. • 2. 90 nl/well of each compound was transferred from the source plate to a 384-well compound plate using an Echo liquid handler. • 3. 30 μl/well assay buffer was added to the compound plate; • c. The plates were mixed on a plate shaker for 2 mins; • 9. The cell plate, compound plate and pipette tips were placed in the FLIPR screening system and 10 μl of each compound was added to a well of the cell plate. • 10. Plates were read for 160 sec with 1 sec intervals to obtain the data in agonist mode, then kept at 25° C. in the dark for 30 min. • 11.

[3] = target: human muscarinic receptor M3 (Homo sapiens, UniProt P20309); experiment: cell-based
Method: as §1

[4] = target: T2, human muscarinic receptor M5 (Homo sapiens, UniProt P08912); experiment: Calcium flux assay (FLIPR), CHO cells expressing human M5; format: cell-based; conditions: agonist mode
T2 construct: expressed in transfected cells
Method: (§2) All cells used in the following experiments were clonal populations of Chinese Hamster Ovary (CHO) cells stably expressing the corresponding human muscarinic receptor, except for the M4 cell line, which was a population of CHO cells transiently transfected with the human M4 receptor. Muscarinic agonism and antagonism of each receptor was measured by a quantitative calcium flux assay that is used for multiple classes of G-protein-coupled receptors, or GPCRs, as described elsewhere (e.g., Arkin et al., […], PMID: 22553878). Acetylcholine and atropine were used as positive controls for receptor agonism and antagonism, respectively. The procedure was as follows: • 1. Cells were thawed and cultured in cell culture medium (DMEM/F12 containing 10% FBS, 1× penicillin-streptomycin and 600 μg/ml hygromycin B) at 37° C. in 5% (v/v) CO2. • 2. One day before the assays, cells were detached using TrypLE™ and counted using a cell-counter. Only cells with >85% viability are used for the assay. • 3. […] Plates were read for 160 sec with 1 sec intervals to obtain the data in agonist mode, then kept at 25° C. in the dark for 30 min. • 11. […] Plates were read for 160 sec with 1 sec intervals, thereby measuring the ability for test compounds to antagonize the activation of muscarinic receptors by Ach.

[5] = target: T3, human muscarinic receptor M2 (Homo sapiens, UniProt P08172); experiment: Calcium flux assay (FLIPR), CHO cells expressing human M2; format: cell-based; conditions: agonist mode
T3 construct: expressed in transfected cells
Method: as §2

T2 sequence (P08912 whole entry): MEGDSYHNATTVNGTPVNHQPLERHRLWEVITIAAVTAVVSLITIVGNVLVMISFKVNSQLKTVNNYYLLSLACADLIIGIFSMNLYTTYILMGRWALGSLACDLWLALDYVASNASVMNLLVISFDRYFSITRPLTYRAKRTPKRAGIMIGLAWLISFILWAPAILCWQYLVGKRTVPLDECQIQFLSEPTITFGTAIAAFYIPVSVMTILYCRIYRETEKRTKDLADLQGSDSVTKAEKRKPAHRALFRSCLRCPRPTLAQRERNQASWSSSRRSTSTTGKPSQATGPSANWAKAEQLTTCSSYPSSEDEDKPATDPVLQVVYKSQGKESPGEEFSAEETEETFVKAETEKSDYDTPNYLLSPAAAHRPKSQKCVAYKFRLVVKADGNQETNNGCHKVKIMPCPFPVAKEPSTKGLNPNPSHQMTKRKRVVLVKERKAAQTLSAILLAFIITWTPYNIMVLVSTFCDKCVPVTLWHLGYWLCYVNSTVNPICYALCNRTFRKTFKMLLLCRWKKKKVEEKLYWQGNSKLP
T3 sequence (P08172 whole entry): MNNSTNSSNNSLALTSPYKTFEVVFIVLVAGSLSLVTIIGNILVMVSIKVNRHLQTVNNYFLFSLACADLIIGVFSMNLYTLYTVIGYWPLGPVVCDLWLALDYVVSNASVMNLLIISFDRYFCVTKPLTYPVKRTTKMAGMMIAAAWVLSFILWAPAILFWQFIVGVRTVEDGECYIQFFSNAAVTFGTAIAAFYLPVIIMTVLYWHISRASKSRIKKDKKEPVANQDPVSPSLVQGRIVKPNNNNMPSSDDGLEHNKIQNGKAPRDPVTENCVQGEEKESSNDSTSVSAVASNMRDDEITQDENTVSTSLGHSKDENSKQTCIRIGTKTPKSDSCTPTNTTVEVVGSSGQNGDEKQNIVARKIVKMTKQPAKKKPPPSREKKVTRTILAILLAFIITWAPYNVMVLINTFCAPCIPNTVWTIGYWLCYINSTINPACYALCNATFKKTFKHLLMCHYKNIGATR
human muscarinic receptor M3, sequence (P20309 whole entry): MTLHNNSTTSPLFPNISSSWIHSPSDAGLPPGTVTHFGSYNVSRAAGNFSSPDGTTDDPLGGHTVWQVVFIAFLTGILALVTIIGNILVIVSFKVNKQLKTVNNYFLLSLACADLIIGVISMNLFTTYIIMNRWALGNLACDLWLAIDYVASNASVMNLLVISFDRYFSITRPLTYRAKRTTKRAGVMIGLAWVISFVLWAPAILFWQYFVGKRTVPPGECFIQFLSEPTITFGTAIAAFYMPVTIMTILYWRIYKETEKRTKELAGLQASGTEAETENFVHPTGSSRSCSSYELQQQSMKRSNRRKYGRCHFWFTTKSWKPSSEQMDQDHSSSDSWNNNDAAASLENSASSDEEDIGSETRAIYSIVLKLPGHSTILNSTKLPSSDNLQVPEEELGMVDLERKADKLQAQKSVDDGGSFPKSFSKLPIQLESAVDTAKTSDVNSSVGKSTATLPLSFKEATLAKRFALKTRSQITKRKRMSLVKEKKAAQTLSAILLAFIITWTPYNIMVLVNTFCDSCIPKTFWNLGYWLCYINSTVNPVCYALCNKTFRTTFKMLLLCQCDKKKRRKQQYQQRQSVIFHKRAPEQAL
human muscarinic receptor M1, sequence (P11229 whole entry): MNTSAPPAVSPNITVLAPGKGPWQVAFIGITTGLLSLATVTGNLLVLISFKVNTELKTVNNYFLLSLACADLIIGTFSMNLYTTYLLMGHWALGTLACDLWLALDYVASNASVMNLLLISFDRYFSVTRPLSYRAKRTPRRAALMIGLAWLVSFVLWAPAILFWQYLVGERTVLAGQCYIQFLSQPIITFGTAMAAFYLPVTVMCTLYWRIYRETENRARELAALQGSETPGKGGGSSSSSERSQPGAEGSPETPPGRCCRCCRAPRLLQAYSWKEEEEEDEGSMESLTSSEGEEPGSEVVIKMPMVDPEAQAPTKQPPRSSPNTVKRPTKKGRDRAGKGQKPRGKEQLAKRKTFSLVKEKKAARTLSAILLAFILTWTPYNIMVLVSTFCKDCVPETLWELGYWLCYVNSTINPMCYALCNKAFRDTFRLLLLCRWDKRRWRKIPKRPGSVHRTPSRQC
T1 sequence (P08173 whole entry): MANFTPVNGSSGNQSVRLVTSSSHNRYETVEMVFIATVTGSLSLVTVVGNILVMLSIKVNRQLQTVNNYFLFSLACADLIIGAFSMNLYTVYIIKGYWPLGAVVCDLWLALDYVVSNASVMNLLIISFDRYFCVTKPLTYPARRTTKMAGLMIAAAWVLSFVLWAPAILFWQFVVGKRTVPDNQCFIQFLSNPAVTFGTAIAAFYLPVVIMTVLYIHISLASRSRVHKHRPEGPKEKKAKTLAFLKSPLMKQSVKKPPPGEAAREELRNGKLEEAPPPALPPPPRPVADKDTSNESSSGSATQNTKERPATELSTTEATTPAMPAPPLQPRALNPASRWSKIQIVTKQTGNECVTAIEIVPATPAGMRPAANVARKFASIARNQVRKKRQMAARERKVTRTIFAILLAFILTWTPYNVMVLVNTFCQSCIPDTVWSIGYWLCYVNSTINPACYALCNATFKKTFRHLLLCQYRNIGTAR

Row | EC50 (human M4 receptor) | EC50 [2] | EC50 [3] | EC50 [4] | EC50 [5] | SMILES | % Baseline tear production (tear production) | dizziness (VAS) (dizziness) | signal at any receptor of the panel [1]
1 |  |  |  |  |  | OC(CCN1CCCCC1)(c1ccccc1)C1CCCCC1 (centres unmarked) [THP, trihexyphenidyl] | 89.1% | significantly reduced dizziness | 
2 | > 10 µM | > 10 µM | 7.57 µM | > 10 µM | > 10 µM | C[C@H](C[N+](C)(C)C)OC(N)=O.[Cl-] [(R)-BTC, (R)-bethanechol, reference compound] |  |  | < 50%
